Experimental findings from patent US10703740B2, “Substituted benzimidazoles, their preparation and their use as pharmaceuticals” (NEOMED Institute, priority 2015, dated 2020) are described below.

In general, IC50 refers to the concentration at which inhibition is half-maximal.

The first test concerns the target BRD4(BD1) (Homo sapiens (Human), UniProt O60885). In words: In vitro bromodomain inhibition assay (AlphaLISA). Format: binding. As to conditions: His-tagged BRD4 BD1 200 nM, biotinylated H4-tetraacetyl peptide 200 nM. The procedure: To measure activity of bromodomain inhibitors, a His-epitope tagged BRD4 BD149-170 is purchased from BPS Bioscience. BRD4 binding and inhibition is assessed by monitoring the engagement of biotinylated H4-tetraacetyl peptide (H4K5/8/12/16; AnaSpec #64989-025) with the target using the AlphaLISA technology (Perkin-Elmer). Specifically, in a 384 well OptiPlate, BRD4(BD1) (200 nM final) is pre-incubated with either DMSO (final 1.0% DMSO) or a compound dilution series in DMSO. All reagents are diluted in assay buffer containing 50 mM HEPES (pH 7.4), 100 mM NaCl, 0.1% (w/v) BSA, and 0.05% (w/v) CHAPS. After a 30 minute incubation at rt, H4 peptide is added (200 nM final) and the reaction is incubated an additional 30 minutes at rt. Alpha streptavidin donor beads and AlphaLISA nickel chelate acceptor beads are then added to a final concentration of 10 μg/mL each. After one hour, equilibration plates are read on an Envision instrument and IC50s calculated using a four parameter non-linear curve fit (results are shown in Table 1).
(In general: In Alpha technology, singlet oxygen from a donor bead excites a nearby acceptor bead.)
Regarding `Cc1cc(-c2ccc3nc(C4CCOCC4)n(CCOC(F)(F)F)c3c2)cn(C)c1=O` [Compound 1, 1,3-dimethyl-5-[2-tetrahydropyran-4-yl-3-[2-(trifluoromethoxy)ethyl]benzimidazol-5-yl]pyridin-2-one], the IC50 was 140 nM.

For `Cc1cc(-c2ccc3nc(C4CC4)n(CCOC(F)(F)F)c3c2)cn(C)c1=O` [Compound 2, 5-[2-cyclopropyl-3-[2-(trifluoromethoxy)ethyl]benzimidazol-5-yl]-1,3-dimethylpyridin-2-one], the IC50 was 190 nM.

In another test the test system is human C-Myc transcription in MV-4-11 cells. In words: Transcription of human C-Myc in human leukemic MV-4-11 cells (QuantiGene 2.0). It counts as cell-based. As to conditions: Homo sapiens, MV4-11, 4 h, inhibition of C-Myc mRNA, 4 hours treatment, read-out: IC50 MV-4-11 Cell. As for the experimental part: The effect of compounds on transcription of human C-Myc gene is monitored in human B-myelomonocytic leukemia cell line MV-4-11 (from American Type Culture Collection (ATCC), Manassas, Va., USA) using QuantiGene 2.0 assay kit (Affymetrix, Santa Clara, Calif., USA).
Typically, 8,000 MV-4-11 cells are plated in sterile 96-well plates (Costar #3598 from Fisher Scientific Canada, Ottawa, Ontario, Canada) in Iscove's medium supplemented with 10% fetal bovine serum, glutamine (2 mM), and penicillin (100 I.U.) and streptomycin (100 μg/mL) (all from Wisent Inc., St. Bruno, Quebec, Canada). Compounds are dissolved in DMSO at 30 mM. A series of 1:3 dilutions are first made in DMSO, and further 1:100 dilutions are made in serum-containing cell culture media. The final concentration of DMSO is 0.1% in cell culture media. After cells are treated with various concentrations of test compound for 4 hours, cells are lysed using Quantigene 2.0 sample processing kit (# QS0100). C-Myc mRNA is detected using a QuantiGene 2.0 assay kit (# QS0009) with gene-specific probe to human C-Myc (# SA-50182) following the manufacturer's recommendations. Luminescene signals are read on Flexstation II microplate reader (Molecular Devices, Sunnyvale, Calif., USA).
Take `Cc1cc(-c2ccc3nc(C4CCOCC4)n(CCOC(F)(F)F)c3c2)cn(C)c1=O` [Compound 1, 1,3-dimethyl-5-[2-tetrahydropyran-4-yl-3-[2-(trifluoromethoxy)ethyl]benzimidazol-5-yl]pyridin-2-one]: the IC50 amounted to 76 nM.

Turning to `Cc1cc(-c2ccc3nc(C4CC4)n(CCOC(F)(F)F)c3c2)cn(C)c1=O` [Compound 2, 5-[2-cyclopropyl-3-[2-(trifluoromethoxy)ethyl]benzimidazol-5-yl]-1,3-dimethylpyridin-2-one], the IC50 is 86 nM.

As for `COCCn1c(C2CCC(F)(F)CC2)nc2ccc(-c3cc(C)c(=O)n(C)c3)cc21` [Compound 44, 5-(2-(4,4-difluorocyclohexyl)-1-(2-methoxyethyl)-1H-benzo[d]imidazol-6-yl)-1,3-dimethylpyridin-2(1H)-one], the IC50 was 98 nM.

With `Cc1cc(-c2ccc3nc(C4CC4)n(CCOCC(F)(F)F)c3c2)cn(C)c1=O` [Compound 45, 5-(2-cyclopropyl-1-(2-(2,2,2-trifluoroethoxy)ethyl)-1H-benzo[d]imidazol-6-yl)-1,3-dimethylpyridin-2(1H)-one], the IC50 was 160 nM.

In the case of `Cc1cc(-c2ccc3nc(C4CCOCC4)n(CC(C)C(F)(F)F)c3c2)cn(C)c1=O` (stereo not shown) [Compound 46a, 1,3-dimethyl-5-(2-(tetrahydro-2H-pyran-4-yl)-1-(3,3,3-trifluoro-2-methylpropyl)-1H-benzo[d]imidazol-6-yl)pyridin-2(1H)-one], the IC50 came out at 220 nM.

With `CCOC[C@@H](C)n1c(C2CCOCC2)nc2ccc(-c3cc(C)c(=O)n(C)c3)cc21` [Compound 47, (R)-5-(1-(1-ethoxypropan-2-yl)-2-(tetrahydro-2H-pyran-4-yl)-1H-benzo[d]imidazol-6-yl)-1,3-dimethylpyridin-2(1H)-one], the IC50 is 27 nM.

Take `CCOC[C@H](C)n1c(C2CCOCC2)nc2ccc(-c3cc(C)c(=O)n(C)c3)cc21` [Compound 48, (S)-5-(1-(1-ethoxypropan-2-yl)-2-(tetrahydro-2H-pyran-4-yl)-1H-benzo[d]imidazol-6-yl)-1,3-dimethylpyridin-2(1H)-one]: the IC50 came out at 260 nM.

Take `Cc1cc(-c2ccc3nc(C4CCOCC4)n(CCOC(C)C)c3c2)cn(C)c1=O` [Compound 49, 5-(1-(2-isopropoxyethyl)-2-(tetrahydro-2H-pyran-4-yl)-1H-benzo[d]imidazole-6-yl)-1,3-dimethylpyridin-2(1H)-one]: the half-maximal inhibitory concentration (IC50) amounted to 22 nM.

`COC[C@@H](C)n1c(CC2CCOCC2)nc2ccc(-c3cc(C)c(=O)n(C)c3)cc21` [Compound 50, (R)-5-(1-(1-methoxypropan-2-yl)-2-((tetrahydro-2H-pyran-4-yl)methyl)-1H-benzo[d]imidazol-6-yl)-1,3-dimethylpyridin-2(1H)-one]: the IC50 came out at 160 nM.

Regarding `COC[C@@H](C)n1c(C2CC(F)(F)C2)nc2ccc(-c3cc(C)c(=O)n(C)c3)cc21` [Compound 51, (R)-5-(2-(3,3-difluorocyclobutyl)-1-(1-methoxypropan-2-yl)-1H-benzo[d]imidazol-6-yl)-1,3-dimethylpyridin-2(1H)-one], the IC50 came to 62 nM.

With `CCOC[C@@H](C)n1c(C2CC(F)(F)C2)nc2ccc(-c3cc(C)c(=O)n(C)c3)cc21` [Compound 52, (R)-5-(2-(3,3-difluorocyclobutyl)-1-(1-ethoxypropan-2-yl)-1H-benzo[d]imidazol-6-yl)-1,3-dimethylpyridin-2(1H)-one], the IC50 was 51 nM.

In the case of `CCO[C@@H](C)Cn1c(C2CC(F)(F)C2)nc2ccc(-c3cc(C)c(=O)n(C)c3)cc21` [Compound 53, (S)-5-(2-(3,3-difluorocyclobutyl)-1-(2-ethoxypropyl)-1H-benzo[d]imidazol-6-yl)-1,3-dimethylpyridin-2(1H)-one], the IC50 came out at 76 nM.

As for `CCO[C@H](C)Cn1c(C2CC(F)(F)C2)nc2ccc(-c3cc(C)c(=O)n(C)c3)cc21` [Compound 54, (R)-5-(2-(3,3-difluorocyclobutyl)-1-(2-ethoxypropyl)-1H-benzo[d]imidazol-6-yl)-1,3-dimethylpyridin-2(1H)-one], the concentration for half-maximal inhibition (IC50) amounted to 170 nM.

Consider `CCO[C@@H](C)Cn1c(C2CCC(F)(F)CC2)nc2ccc(-c3cc(C)c(=O)n(C)c3)cc21` [Compound 55, (S)-5-(2-(4,4-difluorocyclohexyl)-1-(2-ethoxypropyl)-1H-benzo[d]imidazol-6-yl)-1,3-dimethylpyridin-2(1H)-one], for which the half-inhibitory concentration (IC50) amounted to 53 nM.

For `COC[C@H](C)n1c(C2CCC(F)(F)CC2)nc2ccc(-c3cc(C)c(=O)n(C)c3)cc21` [Compound 56, (S)-5-(2-(4,4-difluorocyclohexyl)-1-(1-methoxypropan-2-yl)-1H-benzo[d]imidazol-6-yl)-1,3-dimethylpyridin-2(1H)-one], the IC50 came to 220 nM.

As to `COC[C@@H](C)n1c(C2CCC(F)(F)CC2)nc2ccc(-c3cc(C)c(=O)n(C)c3)cc21` [Compound 57, (R)-5-(2-(4,4-difluorocyclohexyl)-1-(1-methoxypropan-2-yl)-1H-benzo[d]imidazol-6-yl)-1,3-dimethylpyridin-2(1H)-one], the IC50 came to 72 nM.

Turning to `CO[C@H](C)Cn1c(C2CCC(F)(F)CC2)nc2ccc(-c3cc(C)c(=O)n(C)c3)cc21` [Compound 58, (R)-5-(2-(4,4-difluorocyclohexyl)-1-(2-methoxypropyl)-1H-benzo[d]imidazol-6-yl)-1,3-dimethylpyridin-2(1H)-one], the IC50 is 160 nM.

Turning to `CO[C@@H](C)Cn1c(C2CCC(F)(F)CC2)nc2ccc(-c3cc(C)c(=O)n(C)c3)cc21` [Compound 59, (S)-5-(2-(4,4-difluorocyclohexyl)-1-(2-methoxypropyl)-1H-benzo[d]imidazol-6-yl)-1,3-dimethylpyridin-2(1H)-one], the half-inhibitory concentration (IC50) came out at 90 nM.

As to `CCOCCn1c(C2CCOCC2)nc2ccc(-c3cc(C)c(=O)n(C)c3)cc21` [Compound 60, 5-(1-(2-ethoxyethyl)-2-(tetrahydro-2H-pyran-4-yl)-1H-benzo[d]imidazol-6-yl)-1,3-dimethylpyridin-2(1H)-one], the IC50 came out at 17 nM.

Regarding `CCOCCn1c(C2CCC(F)(F)CC2)nc2ccc(-c3cc(C)c(=O)n(C)c3)cc21` [Compound 61, 5-(2-(4,4-difluorocyclohexyl)-1-(2-ethoxyethyl)-1H-benzo[d]imidazol-6-yl)-1,3-dimethylpyridin-2(1H)-one], the concentration for half-maximal inhibition (IC50) stood at 84 nM.

On to `COC1CC(c2nc3ccc(-c4cc(C)c(=O)n(C)c4)cc3n2CCOCC(F)(F)F)C1` (stereo not shown) [Compound 62, 5-[2-(3-methoxycyclobutyl)-1-(2-(2,2,2-trifluoroethoxy)ethyl)-1H-benzo[d]imidazol-6-yl]-1,3-dimethylpyridin-2(1H)-one], for which the IC50 is 21 nM.

Turning to `Cc1cc(-c2ccc3nc(C4CCOCC4)n([C@H](C)COC(C)C)c3c2)cn(C)c1=O` [Compound 66, (R)-5-(1-(1-isopropoxypropan-2-yl)-2-(tetrahydro-2H-pyran-4-yl)-1H-benzo[d]imidazol-6-yl)-1,3-dimethylpyridin-2(1H)-one], the half-inhibitory concentration (IC50) worked out at 18 nM.

Take `Cc1cc(-c2ccc3nc(C4CCOCC4)n(C[C@H](C)OC(C)C)c3c2)cn(C)c1=O` [Compound 67, (S)-5-(1-(2-isopropoxypropyl)-2-(tetrahydro-2H-pyran-4-yl)-1H-benzo[d]imidazol-6-yl)-1,3-dimethylpyridin-2(1H)-one]: the IC50 was 26 nM.

The same test, now with this note: inhibition of C-Myc mRNA, 4 hours treatment, read-out: IC50 MV-4-11 Cell.
For `Cc1cc(-c2ccc3nc(C4CCOCC4)n(CC(C)C(F)(F)F)c3c2)cn(C)c1=O` (stereo not shown) [Compound 46b, 1,3-dimethyl-5-(2-(tetrahydro-2H-pyran-4-yl)-1-(3,3,3-trifluoro-2-methylpropyl)-1H-benzo[d]imidazol-6-yl)pyridin-2(1H)-one], the IC50 was 250 nM.

`COC1CC(c2nc3ccc(-c4cc(C)c(=O)n(C)c4)cc3n2CCOC(C)C)C1` (stereo not shown) [Compound 64, 5-[1-(2-isopropoxyethyl)-2-(3-methoxycyclobutyl)-1H-benzo[d]imidazol-6-yl]-1,3-dimethylpyridin-2(1H)-one]: the IC50 was found to be 51 nM.

On to `COC1CC(c2nc3ccc(-c4cc(C)c(=O)n(C)c4)cc3n2CCOC(C)C)C1` (stereo not shown) [Compound 65, 5-[1-(2-isopropoxyethyl)-2-(3-methoxycyclobutyl)-1H-benzo[d]imidazol-6-yl]-1,3-dimethylpyridin-2(1H)-one], for which the IC50 amounted to 25 nM.
